Results reported in patent publication US7514567B2 (priority 2003, dated 2009).

Target: α7 nAChR Subtype (Rattus norvegicus, UniProt Q05941)
Format: binding
Conditions: read-out: KD of radioligand from saturation curves

Sequence of α7 nAChR Subtype (Q05941 23-502 limits assumed): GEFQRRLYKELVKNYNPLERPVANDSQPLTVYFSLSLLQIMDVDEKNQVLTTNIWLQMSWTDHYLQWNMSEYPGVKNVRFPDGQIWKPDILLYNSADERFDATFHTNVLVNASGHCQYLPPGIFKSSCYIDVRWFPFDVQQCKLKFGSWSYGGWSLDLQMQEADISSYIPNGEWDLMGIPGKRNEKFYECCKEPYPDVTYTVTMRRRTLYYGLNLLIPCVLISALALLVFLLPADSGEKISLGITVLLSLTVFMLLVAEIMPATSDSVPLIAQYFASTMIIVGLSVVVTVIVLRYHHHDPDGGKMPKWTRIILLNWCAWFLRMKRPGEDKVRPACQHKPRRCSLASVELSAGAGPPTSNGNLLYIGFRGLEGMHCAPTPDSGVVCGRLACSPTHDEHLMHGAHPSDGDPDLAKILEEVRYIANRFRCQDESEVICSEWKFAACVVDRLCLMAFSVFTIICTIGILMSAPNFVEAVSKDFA

[^125I]-α-Bungarotoxin [[^125I]-α-BTX] was tested, and the Kd was 1.67 nM.
